According to US20240349733A1 (priority 2023, published 2024):
“Also recorded” adds a separate entry of the source. Where two headings read alike, the source gives them in different places. Ends that are not written are not given here.

Assays:
L. crescens [1] = type: binding, Liberibacter crescens
R. galegae [2] = assay: FITC-labeled peptide binding assay, fluorescence microscopy; set-up: species or system Rhizobium galegae
[3] = test system: putative CLas cells in bacterial extracts from HLB-affected trees; type: binding, Candidatus Liberibacter asiaticus
R. grahamii [4] = type: binding, Rhizobium grahamii
R. grahamii [5] = type: cell-based, Rhizobium grahamii; details: 10, 25, 50, 100 μg/ml
CLas BamA protein = CLas BamA protein (Candidatus Liberibacter asiaticus, UniProt Q32TE9); type: binding; details: for Kd: read-out: KD, affinity constant
E. coli = assay: FITC-labeled peptide binding assay, fluorescence microscopy; set-up: species or system Escherichia coli
[6] = test system: cells in healthy citrus tree extracts; type: binding
[7] = biological target: CLas BamA protein (Candidatus Liberibacter asiaticus); assay: BLI (BLItz), […], global fit, triplicate
CLas [8] = type: in vivo, Candidatus Liberibacter asiaticus; details: for Reduction in CLas titers compared to SOD2* or SOD12 alone: roots of 4 months old composite plants stably expressing the STAMP
L. crescens [9] = test system: L. crescens
CLas [10] = type: cell-based, Candidatus Liberibacter asiaticus; details: 72 hours; 25, 50, 100 μg/ml
R. galegae [11] = type: cell-based, Rhizobium galegae; details: N- or C-terminus orientation
[12] = BLI, pH 6.5 Tris buffer, mean ± SD
[13] = binders 16 μM, bacterial extracts from HLB-affected citrus trees
[14] = binders 16 μM, unrelated bacterium
[15] = especially at lower dosages (50 μg/ml)

SRNSSIALGLRRAYAVFNYFVARGI [compound 57020]
Binding of FITC-labeled binder to L. crescens (L. crescens [1]): consistent binding; also recorded: bound | Binding of FITC-labeled binder to R. galegae (R. galegae [2]): consistent binding; also recorded: bound | Binding of FITC-labeled binder to CLas cells [3]: consistent binding; also recorded: bound | Binding of FITC-labeled binder to R. grahamii (R. grahamii [4]): consistent binding; also recorded: bound | In vitro growth inhibition of R. grahamii, efficacy compared to SOD12 alone (R. grahamii [5]): significantly greater efficacy | Ka, rate of association (CLas BamA protein; pH 6.5): 15857 ± 1 M⁻¹ s⁻¹ | Kd, rate of dissociation (CLas BamA protein; pH 6.5): 0.0032 ± 1 s⁻¹ | Kd (CLas BamA protein; pH 6.5): 209 nM | Binding of FITC-labeled binder to E. coli (E. coli): not to E. coli | Binding of FITC-labeled binder to cells in healthy citrus tree extracts [6]: not

DLHPQFQNLLKKSQN [ACT56869.1_241-255]
Ka, rate of association (CLas BamA protein; [12]): 49610 ± 1 M⁻¹ s⁻¹ | Kd, rate of dissociation (CLas BamA protein; [12]): 0.01167 ± 1 s⁻¹ | Kd (CLas BamA protein; [12]): 270 nM

QSFYYVSQKKKWFPVKF [ACT56973.1_80-96]
Ka, rate of association (CLas BamA protein; [12]): 852433 ± 1 M⁻¹ s⁻¹ | Kd, rate of dissociation (CLas BamA protein; [12]): 0.2111 ± 1 s⁻¹ | Kd (CLas BamA protein; [12]): 248 nM

MGINGFKFLSDIHHFCS [compound 22602, MGINGFKFLSDIHHFCS]
Binding of FITC-labeled binder to L. crescens (L. crescens [1]): consistent binding; also recorded: bound | Binding of FITC-labeled binder to R. galegae (R. galegae [2]): consistent binding; also recorded: bound | Binding of FITC-labeled binder to CLas cells [3]: consistent binding; also recorded: bound | Binding of FITC-labeled binder to R. grahamii (R. grahamii [4]): consistent binding; also recorded: bound | Binding of FITC-labeled binder to E. coli (E. coli): not to E. coli | Binding of FITC-labeled binder to cells in healthy citrus tree extracts [6]: not

WHVTFY [#11]
Binding of FITC-labeled binder to L. crescens (L. crescens [1]; binders 16 μM): bound | Binding of FITC-labeled binder to R. galegae (R. galegae [2]; binders 16 μM): bound | Binding of FITC-labeled binder to CLas cells [3, 13]: bound | Binding of FITC-labeled binder to R. grahamii (R. grahamii [4]; binders 16 μM): bound | Binding of FITC-labeled binder to E. coli (E. coli; [14]): not to E. coli | Binding of FITC-labeled binder to cells in healthy citrus tree extracts ([6]; binders 16 μM): not

ACT56973.1_80-96 (peptide)
Kd [7]: 248 nM | koff [7]: 0.211 s⁻¹ | kon [7]: 852000 M⁻¹ s⁻¹

ACT57020.1_94-118 (peptide)
Kd [7]: 209 nM | koff [7]: 0.0032 s⁻¹ | kon [7]: 15900 M⁻¹ s⁻¹

RICESASYRFKGICVSRSNCANVCKNEGFPGGRCRGFRRRCLCYKHCG (cysteines drawn unpaired) [SOD12]
CLas titers compared to empty vector controls (CLas [8]; in vivo): significantly lowered | Mortality of L. crescens at lower dosage (L. crescens [9]): ineffective | Mortality rate of L. crescens (L. crescens [9]): 65-85% | Anti-CLas activity (relative CLas titers by qPCR) (CLas [10]): ineffective or moderately effective

WHVTYF [#12]
Binding of FITC-labeled binder to L. crescens (L. crescens [1]; binders 16 μM): bound | Binding of FITC-labeled binder to R. galegae (R. galegae [2]; binders 16 μM): bound | Binding of FITC-labeled binder to CLas cells [3, 13]: bound | Binding of FITC-labeled binder to R. grahamii (R. grahamii [4]; binders 16 μM): bound | Binding of FITC-labeled binder to E. coli (E. coli; [14]): not to E. coli | Binding of FITC-labeled binder to cells in healthy citrus tree extracts ([6]; binders 16 μM): not

ACT56869.1_241-255 (peptide)
Kd [7]: 270 nM | koff [7]: 0.0117 s⁻¹ | kon [7]: 49600 M⁻¹ s⁻¹

NC(N)=NC(=O)CC(Nc1nc(N=C(N)N)nc(NC2CCC(NC(=O)Cn3nnc(-c4ccc(F)cc4)n3)CC2)n1)C1CC1 (centres unmarked) [MRL-494, reference compound]
Kd, rate of dissociation (CLas BamA protein; [12]): 0.0813 ± 1 s⁻¹ | Kd (CLas BamA protein; [12]): 6970 nM

B1: SOD12-22602: STAMP, SEQ ID NO: 22; SOD12, GGSGGS linker, binder 22602 (peptide)
chain: RICESASYRFKGICVSRSNCANVCKNEGFPGGRCRGFRRRCLCYKHCGGGSGGSMGINGFKFLSDIHHFCS
Efficacy in R. galegae compared with 22602-SOD12 and SOD12-57020 (binder orientation) (R. galegae [11]): lower efficacy

B2: SOD12-57020: STAMP, SEQ ID NO: 24; SOD12, GGSGGS linker, binder 57020 (peptide)
chain: RICESASYRFKGICVSRSNCANVCKNEGFPGGRCRGFRRRCLCYKHCGGGSGGSSRNSSIALGLRRAYAVFNYFVARGI
In vitro growth inhibition of R. grahamii, efficacy compared to SOD12 alone (R. grahamii [5]; [15]): significantly greater efficacy

B3: 22602-SOD12: STAMP, SEQ ID NO: 21; binder 22602, GGSGGS linker, SOD12 (peptide)
chain: MGINGFKFLSDIHHFCSGGSGGSRICESASYRFKGICVSRSNCANVCKNEGFPGGRCRGFRRRCLCYKHCG
Reduction in CLas titers compared to SOD2* or SOD12 alone (CLas [8]): even greater reduction in CLas titers

B4: 22602-SoD2*: STAMP, SEQ ID NO: 25; binder 22602, GGSGGS linker, SOD2* (peptide)
chain: MGINGFKFLSDIHHFCSGGSGGSGIFSSRKCKTPSKTFKGICTRDSNCDTSCRYEGYPAGDCKGIRRRCLCCTHT
Reduction in CLas titers compared to SOD2* or SOD12 alone (CLas [8]): even greater reduction in CLas titers

B5: 57020-SOD12: STAMP, SEQ ID NO: 23; binder 57020, GGSGGS linker, SOD12 (peptide)
chain: SRNSSIALGLRRAYAVFNYFVARGIGGSGGSRICESASYRFKGICVSRSNCANVCKNEGFPGGRCRGFRRRCLCYKHCG
In vitro growth inhibition of R. grahamii, efficacy compared to SOD12 alone (R. grahamii [5]; [15]): significantly greater efficacy | Efficacy in R. galegae compared with 22602-SOD12 and SOD12-57020 (binder orientation) (R. galegae [11]): lower efficacy

B6: 57020-SoD2*: STAMP, SEQ ID NO: 27; binder 57020, GGSGGS linker, SOD2* (peptide)
chain: SRNSSIALGLRRAYAVFNYFVARGIGGSGGSGIFSSRKCKTPSKTFKGICTRDSNCDTSCRYEGYPAGDCKGIRRRCLCCTHT
Reduction in CLas titers compared to SOD2* or SOD12 alone (CLas [8]): even greater reduction in CLas titers
